pIC50: −log10 of the molar value. ≈ marks a conversion by molar mass, not a printed value.
Experiments:
K562 = experiment: cells; assay type: functional, cell-based; conditions: Homo sapiens, K562, 72 h
physchem [1] = conditions: buffer, pH 7.4
physchem [2] = conditions: buffer, pH 2
in vitro = conditions: PAMPA, pH 7.4
cells = assay type: ADME, cell-based; conditions: Homo sapiens, HS5, 72 h
U-937 = experiment: cells; assay type: functional, cell-based; conditions: Homo sapiens, U-937, 72 h
MV4-11 = experiment: cells; assay type: functional, cell-based; conditions: Homo sapiens, MV4-11, 72 h

| Structure (SMILES) | pIC50 (K562) | solubility kinetic at 24 h (physchem [1]) [µM] | solubility kinetic at 24 h (physchem [2]) [µM] | Papp at 5 h (in vitro) [×10⁻⁶ cm/s] | pIC50 (cells) | pIC50 (U-937) | pIC50 (MV4-11) |
| --- | --- | --- | --- | --- | --- | --- | --- |
| CSc1ccc(/C=C/c2nc(NCCN(C)C)c3ccccc3n2)cc1 | 5.28 | 116 (≈ 42.3 µg/mL) | 119 (≈ 43.4 µg/mL) | 5.86 | 5.40 |  |  |
| CC(C)c1ccc(/C=C/c2nc(NCCN(C)C)c3cc(F)ccc3n2)cc1 | 5.39 | 5 (≈ 1.89 µg/mL) | 119 (≈ 45 µg/mL) | 3.38 | 5.48 | 5.39 | 7.22 |
| CC(C)c1ccc(/C=C/c2nc(NCCN(C)C)c3cc(Cl)ccc3n2)cc1 | 5.54 | 12 (≈ 4.74 µg/mL) | 110 (≈ 43.4 µg/mL) | 0.73 | 5.52 |  |  |
| CCN(CC)CCCNc1nc(/C=C/c2ccc(OC)cc2)nc2ccc(Br)cc12 | 5.39 | 96 (≈ 45.1 µg/mL) | 96 (≈ 45.1 µg/mL) | 5.35 | 5.68 | 5.20 |  |
| CCN(CC)CCNc1nc(/C=C/c2ccc(S(C)(=O)=O)cc2)nc2ccc(Cl)cc12 | 5.59 | 12 (≈ 5.51 µg/mL) | 115 (≈ 52.8 µg/mL) | 0.56 | 5.39 | 5.31 | 7.40 |
| CN(C)CCNc1nc(/C=C/c2ccc(F)cc2)nc2ccccc12 | 5.24 | 10 (≈ 3.36 µg/mL) | 120 (≈ 40.4 µg/mL) | 9.61 | 5.20 | 4.96 |  |
| CN(C)CCCNc1nc(/C=C/c2ccc(S(C)(=O)=O)cc2)nc2ccc(Cl)cc12 | 5.32 | 23 (≈ 10.2 µg/mL) | 111 (≈ 49.4 µg/mL) | 0.61 | 5.39 | 5.04 |  |
| CN(C)CCNc1nc(/C=C/c2ccc(S(C)(=O)=O)cc2)nc2ccc(Cl)cc12 | 5.16 | 8 (≈ 3.45 µg/mL) | 112 (≈ 48.3 µg/mL) | 0.36 | 5.32 | 4.91 |  |
| CCN(CC)CCNc1nc(/C=C/c2ccc(C(C)C)cc2)nc2ccc(F)cc12 | 5.67 | 36 (≈ 14.6 µg/mL) | 120 (≈ 48.8 µg/mL) | 1.74 | 5.47 | 5.39 |  |
| COc1cc2c(N3CCN(C(=O)Nc4ccc(OC(C)C)cc4)CC3)ncnc2cc1OCCCN1CCCCC1 [TANDUTINIB] | 5.04 |  |  |  | 4.94 | 4.70 | 7.22 |
